In US9797016B2, “Methods and biomarkers for detection of bladder cancer” (OSLO UNIVERSITETSSYKEHUS HF, priority 2010, dated 2017):

Test system: bladder cancer cell lines (5637, J82, SCaBER, TCCSUP)
Assay: Quantitative gene expression analyses (real-time PCR) after epigenetic drug treatment
Type: cell-based, human
Settings: hypermethylated bladder cancer cell lines; 1 μM or 5 μM 5-aza-dC alone, 72 hours
Protocol: Cell lines representative of bladder (5637, J82, SCaBER, and TCCSUP), renal cell (786-0, ACHN, Caki-1, Caki-2) and prostate (22Rv1, DU 145, LNCaP, PC-3) cancer were obtained from the American Type Culture Collection (Manassas, Va.). All cell lines were cultured according to the manufacturer's specifications, with 10% fetal bovine serum (Gibco, Invitrogen, Carlsbad, Calif.) and antibiotics (100 units/mL penicillin G, and 100 μg/mL streptomycin, Gibco), in a humidified atmosphere of 5% CO2 at 37° C. […] RNA from four bladder cancer cell lines untreated, treated either with 1 μM or 5 μM of 5-aza-2′-deoxycytidine for 72 hours, and treated with the combination of 1 μM of 5-aza-dC (72 h) and 0.5 μM of trichostatin (added the last 12 h) was analyzed. […] GDF15 (Hs00171132_m1), HSPA2 (Hs00356607_g1), TMEFF2 (Hs01086901_m1), VIM (Hs00185584_m1), and endogenous controls assays GUSB (Hs99999908_m1) and HPRTJ (Hs99999909_m1), were amplified separately in 96-well plates following the recommended protocol (Applied Biosystems), and the real time quantitative gene expression was measured by the 7500 Real-Time PCR System (Applied Biosystems). All samples were analyzed in triplicate, and the mean value was used for data analysis. […]

Nc1ncn([C@H]2C[C@H](O)[C@@H](CO)O2)c(=O)n1 [5-aza-dC, 5-aza-2′-deoxycytidine]
transcript expression of GDF15, HSPA2, TMEFF2 and VIM after promoter demethylation: restored or increased
